The values that follow come from US20220367023A1, “Method for Predicting a Suitable Therapy” (National University of Singapore, priority 2019, published 2022).

Read-outs that look alike come from different tables or passages of the source.

For the assay, the system named is primary HSTCL cells from a patient. In words: Ex vivo QPOP drug combination sensitivity, CellTiter-Glo cell viability (11 drugs at 3 doses, OACD). The assay is classed as cell-based, human. On the technique in general: In ATP-based viability assays light output follows the ATP content of the culture.
Where [1] appears, read: Homo sapiens, concentration used in the ex vivo QPOP experiment, read-out: IC15.
[2] abbreviates: Homo sapiens, concentration used in the ex vivo QPOP experiment, read-out: IC30.
Where [3] appears, read: output cell viability, 11 drugs at 3 doses.
The mark [4] stands for this setting: concentration used in the ex vivo QPOP experiment.

Description: Tumor cells from an oncology patient sample are treated with a series of test drug combinations defined by Resolution IV Orthogonal Array Composite Design. This array of tests is used to derive coefficients for single drug and drug-drug interactions for all the drugs within the drug search set. These coefficients are used to calculate a predicted output of potential drug combinations (up to 4 drugs) from the drug search set. Patient-specific drug combinations are prioritized based on predicted output of single drug, 2-drug, 3-drug or 4-drug combinations.
In the current embodiment, primary patient sample that contains tumor cells, either from a blood sample or solid tumor biopsy, is collected. Tumor cells are isolated and seeded 2000 cells/well in Nunc™ 384-Well Clear Polystyrene Plates. In the examples used here, cell viability was performed using the CellTiter-Glo® Luminescent Cell Viability Assay following the manufacturer's instructions (Promega, Madison, Wis., USA).
Datasets for analysis by QPOP are built by ex vivo treatment of primary patient tumor cells with a series of drug combinations determined by orthogonal array composite design (OACD) to use the least number of combinations sufficient for factor screening and in-depth analyses, in concentrations that are at or below clinically approved doses (max Pk conc.), Table 1. […] In these examples here, the viability of cells exposed to the various drug combinations are the phenotypic output which is analyzed by the QPOP assay. The correlation of treatment combination (input) and viability (output) was fitted into a second-order quadratic equation. The coefficients of the second-order equation represent the correlation between the input, drug dose of the drug combination, and the output cell viability, allowing for optimizing drug combination. In the analysis, each drug combination was represented as a vector and coded dosages were used in MATLAB. The second-order quadratic equation is as follows:
where y represents the desired output, xn is the nth drug dosage, β0 is the intercept term, βn is the single-drug coefficient of the nth drug, βmn is the interaction coefficient between the mth and nth drugs, and βnn is the quadratic coefficient for the nth drug. […] The coefficients were calibrated using the data points in dose response assay of single drugs and drug combination (Table 2). To ensure the robustness and integrity of the assay, Z′ score is calculated after every QPOP analysis.

As to `CC(C)C[C@H](NC(=O)[C@H](Cc1ccccc1)NC(=O)c1cnccn1)B(O)O` [Bortezomib], the IC15 under setting [1] is 6 nM. The IC30 under setting [2] amounted to 12 nM. For the same molecule, the “Coefficient estimates of the second-order quadratic fit” value (shortened to “Coefficient estimates”) under setting [3] is 5456.

Take `N.N.[Cl][Pt][Cl]` [Cisplatin]: the IC15 (concentration used in the ex vivo QPOP experiment, read-out: IC15) is 1500 nM. Besides, the IC30 (concentration used in the ex vivo QPOP experiment, read-out: IC30) stood at 3000 nM. For the same molecule, under setting [3], the “Coefficient estimates” value was −0.06756 and the “Estimate, single-drug coefficient of the second-order quadratic fit” value is reported as 0.06189.

As to `O=P1(N(CCCl)CCCl)NCCCO1` (centres unmarked) [Cyclophosphamide], for the setting “Homo sapiens”, the IC15 stood at 30000 nM and the IC30 was found to be 60000 nM.

Take `Nc1ccn([C@@H]2O[C@H](CO)[C@@H](O)[C@@H]2O)c(=O)n1` [Cytarabine]: where the note is “Homo sapiens”, the IC15 worked out at 233 nM and the IC30 stood at 466 nM.

`C[C@@H]1C[C@H]2[C@@H]3CCC4=CC(=O)C=C[C@]4(C)[C@@]3(F)[C@@H](O)C[C@]2(C)[C@@]1(O)C(=O)CO` [Dexamethasone]: under “Homo sapiens”, the IC15 is 60 nM and the IC30 turned out to be 120 nM.

Regarding `COc1cccc2c1C(=O)c1c(O)c3c(c(O)c1C2=O)C[C@@](O)(C(=O)CO)C[C@@H]3O[C@H]1C[C@H](N)[C@H](O)[C@H](C)O1` [Doxorubucin], the IC15 under setting [1] came out at 22.5 nM. Further, under setting [2], the IC30 is 45 nM.

On to `COc1cc([C@@H]2c3cc4c(cc3[C@@H](O[C@@H]3O[C@@H]5CO[C@@H](C)O[C@H]5[C@H](O)[C@H]3O)[C@H]3COC(=O)[C@H]23)OCO4)cc(OC)c1O` [Etoposide], for which, under setting [1], the IC15 was 283 nM. In addition, under setting [2], the IC30 stood at 565 nM. The “Coefficient estimates” value under setting [3] is −3.739.

For `Nc1ccn([C@@H]2O[C@H](CO)[C@@H](O)C2(F)F)c(=O)n1` [Gemcitabine], the IC15 under setting [1] came out at 7.79 nM. Also, the IC30 under setting [2] was 15.6 nM.

With `O=P1(NCCCl)OCCCN1CCCl` (centres unmarked) [Ifosfamide], under “Homo sapiens”, the IC15 is 15000 nM and the IC30 came out at 30000 nM. Also, the “Estimate, quadratic coefficient of the second-order quadratic fit” value under setting [3] was 0.001006.

Consider `CN(Cc1cnc2nc(N)nc(N)c2n1)c1ccc(C(=O)N[C@@H](CCC(=O)O)C(=O)O)cc1` [Methotrexate], for which, under setting [1], the IC15 was determined as 300 nM. Further, the IC30 under setting [2] was 600 nM.

On to L-asparaginase, for which, under setting [4], the IC15 was determined as 0.3 IU/ml and the IC30 worked out at 0.6 IU/ml. Moreover, under setting [3], the “Coefficient estimates” value is 2.237 and the “Estimate, single-drug coefficient of the second-order quadratic fit” value is listed as −1.282.
